Here are results for 18 compounds from patent US20240067632A1, “WEE1 Degrading Compounds and Uses Thereof” (Bristol-Myers Squibb Company, priority 2022, published 2024).

One assay concerns the target T1, WEE1 (Homo sapiens, UniProt P30291+Q96SW2).
T1 construct: C-terminal ePL-tagged (DiscoverX, Fremont, CA) full-length WEE1 expression construct; expressed in transfected cells; host or cells: LentiX-HEK293T (Invitrogen), lentiviral transduction; co-expressing GSPT1-GN (G576N, lacking the first 158 amino acids)
The experiment in a line: WEE1-ePL degradation assay (LentiX-WEE1-ePL-GSPT1-ND cells, InCELL Hunter luminescence, 4 h). Particulars: 293T-LentiX WEE1-ePL cells; for DC50: read-out: 293T-LentiX WEE1-ePL Degradation 4 hr (EC50). The class given is cell-based. The method in brief: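 First, compounds were pre-plated as 10-point, 3-fold dilutions (top 1 uM or 10 uM) with DMSO control; next, WEE1-ePL-expressing HEK293T cells were added and held 4 h at 37 °C; finally, InCELL Hunter reagent was applied for 30 min before luminescence reading. A 4PL fit gave EC50 and Ymin.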

Another assay has as its system MKN45 cells. The experiment in a line: MKN45 cell proliferation assay (Cell-Titer-Glo, 120 h). The class given is cell-based. To be noted: for EC50: Homo sapiens, MKN-45, 120 h, Cell-Titer-Glo, read-out: MKN45 Cell Prolif. 120 hr (EC50); for MKN45 Cell Prolif. 120 hr (Ymin-Obs): minimal percent of DMSO control observed in the concentrations tested. The method in brief: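 Cells seeded at 400/well onto pre-printed 10-point half-log dilutions (top 1 or 10 uM, 0.1% DMSO final), in triplicate, and grown 120 h at 37 C. Viability by Cell-Titer-Glo luminescence, blank-subtracted and normalised to DMSO; EC50 from four-parameter logistic fit, with observed minimal % of control recorded as Ymin-obs.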

Setting [1] is: lower limit of the fit (0 = luciferase inhibitor, Ymax = DMSO control).
Setting [2] is: lower limit of the fit (Ymin=0 luciferase inhibitor, Ymax DMSO control).

Like-named read-outs stand apart in the source and are kept apart here. Some results are limits rather than exact numbers.

A word on the EC50: it is the midpoint of the concentration-response curve. For the compound `CN1CCCc2cc(CN3CC[C@H](Oc4ccc5c(c4)CN(C4CCC(=O)NC4=O)C5=O)C3)cnc21` (stereo partly drawn) [3-(5-{[(3S)-1-[(8-methyl-5,6,7,8-tetrahydro-1,8-naphthyridin-3-yl)methyl]pyrrolidin-3-yl]oxy}-1-oxo-2,3-dihydro-1H-isoindol-2-yl)piperidine-2,6-dione], the “293T-LentiX WEE1-ePL Degradation 4 hr (Ymin)” value at WEE1 (setting [1]) is 58. In addition, the DC50 on WEE1 was 19.1 nM. Also, the concentration for a half-maximal effect (EC50) with MKN45 cells (growth inhibition) was > 10000 nM. For the same compound, the “MKN45 Cell Prolif. 120 hr (Ymin-Obs)” value in the assay on MKN45 cells was 79.28.
With `O=C1CC[C@H](N2Cc3cc(O[C@H]4CCN(Cc5cc(C(F)(F)F)c6nc(N7CCOCC7)ncc6c5)C4)ccc3C2=O)C(=O)N1` [(3S)-3-(5-{[(3S)-1-{[2-(morpholin-4-yl)-8-(trifluoromethyl)quinazolin-6-yl]methyl}pyrrolidin-3-yl]oxy}-1-oxo-2,3-dihydro-1H-isoindol-2-yl)piperidine-2,6-dione], on WEE1 (setting [2]), the “293T-LentiX WEE1-ePL Degradation 4 hr (Ymin)” value was 33.06. The DC50 at WEE1 was 1.8 nM. In addition, in the assay on MKN45 cells, the EC50 came to 8.91 nM and the “MKN45 Cell Prolif. 120 hr (Ymin-Obs)” value amounted to 3.502.
For the compound `O=C1CC[C@H](N2Cc3cc(O[C@H]4CCN(Cc5ccc6nc([C@@H]7CCOC7)ncc6c5)C4)ccc3C2=O)C(=O)N1`, the “293T-LentiX WEE1-ePL Degradation 4 hr (Ymin)” value at WEE1 (setting [1]) was 33. Moreover, on WEE1, the DC50 came to 18 nM. Also, the EC50 in the assay on MKN45 cells (growth inhibition) worked out at 13 nM. Further, the “MKN45 Cell Prolif. 120 hr (Ymin-Obs)” value in the assay with MKN45 cells is listed as 9.409.
Take `COC(C)(C)c1ccc2cc(CN3CC[C@H](Oc4ccc5c(c4)CN(C4CCC(=O)NC4=O)C5=O)C3)ncc2c1` (stereo partly drawn) [3-(5-{[(3S)-1-{[7-(2-methoxypropan-2-yl)isoquinolin-3-yl]methyl}pyrrolidin-3-yl]oxy}-1-oxo-2,3-dihydro-1H-isoindol-2-yl)piperidine-2,6-dione]: the “293T-LentiX WEE1-ePL Degradation 4 hr (Ymin)” value at WEE1 (setting [1]) was 32. Moreover, the DC50 on WEE1 was determined as 1.21 nM. Also, the EC50 in the assay with MKN45 cells (growth inhibition) stood at 6.04 nM. The “MKN45 Cell Prolif. 120 hr (Ymin-Obs)” value with MKN45 cells was 11.51.
For the compound `O=C1CCC(N2Cc3cc(O[C@H]4CCN(Cc5cnc6cccnc6c5)C4)ccc3C2=O)C(=O)N1` (stereo partly drawn) [3-(5-{[(3S)-1-[(1,5-naphthyridin-3-yl)methyl]pyrrolidin-3-yl]oxy}-1-oxo-2,3-dihydro-1H-isoindol-2-yl)piperidine-2,6-dione], the “293T-LentiX WEE1-ePL Degradation 4 hr (Ymin)” value at WEE1 (setting [1]) was 66. The DC50 at WEE1 turned out to be 75.4 nM. Besides, the 50% effective concentration (EC50) in the assay on MKN45 cells (growth inhibition) was determined as 561 nM. Besides, in the assay on MKN45 cells, the “MKN45 Cell Prolif. 120 hr (Ymin-Obs)” value is given as 73.34.
On to `O=C1CCC(N2Cc3cc(O[C@H]4CCN(Cc5ccc6nc(N7CCC(F)(F)CC7)ccc6c5)C4)ccc3C2=O)C(=O)N1` (stereo partly drawn) [3-(5-{[(3S)-1-{[2-(4,4-difluoropiperidin-1-yl)quinolin-6-yl]methyl}pyrrolidin-3-yl]oxy}-1-oxo-2,3-dihydro-1H-isoindol-2-yl)piperidine-2,6-dione], for which, on WEE1 (setting [1]), the “293T-LentiX WEE1-ePL Degradation 4 hr (Ymin)” value stood at 21.62. The DC50 at WEE1 was 38.4 nM. Further, the 50% effective concentration (EC50) in the assay on MKN45 cells (growth inhibition) came to 17.9 nM. In addition, in the assay on MKN45 cells, the “MKN45 Cell Prolif. 120 hr (Ymin-Obs)” value is on record as 17.9.
In the case of `CN1C(=O)COc2ccc(CN3CC[C@H](Oc4ccc5c(c4)CN(C4CCC(=O)NC4=O)C5=O)C3)cc21` (stereo partly drawn) [3-(5-{[(3S)-1-[(4-methyl-3-oxo-3,4-dihydro-2H-1,4-benzoxazin-6-yl)methyl]pyrrolidin-3-yl]oxy}-1-oxo-2,3-dihydro-1H-isoindol-2-yl)piperidine-2,6-dione], on WEE1 (setting [1]), the “293T-LentiX WEE1-ePL Degradation 4 hr (Ymin)” value was found to be 56. Besides, the DC50 on WEE1 is 47.9 nM. In the assay with MKN45 cells (growth inhibition), the concentration for a half-maximal effect (EC50) was > 10000 nM. Besides, in the assay on MKN45 cells, the “MKN45 Cell Prolif. 120 hr (Ymin-Obs)” value is recorded as 84.725.
Regarding `N#Cc1ccc(CN2CC[C@H](Oc3ccc4c(c3)CN(C3CCC(=O)NC3=O)C4=O)C2)nc1` (stereo partly drawn) [6-{[(3S)-3-{[2-(2,6-dioxopiperidin-3-yl)-1-oxo-2,3-dihydro-1H-isoindol-5-yl]oxy}pyrrolidin-1-yl]methyl}pyridine-3-carbonitrile], the “293T-LentiX WEE1-ePL Degradation 4 hr (Ymin)” value on WEE1 (setting [1]) is on record as 64. In addition, the DC50 on WEE1 was found to be 61 nM. Further, the EC50 in the assay with MKN45 cells (growth inhibition) was > 10000 nM. The “MKN45 Cell Prolif. 120 hr (Ymin-Obs)” value with MKN45 cells was determined as 69.48.
Regarding `O=C1CC[C@H](N2Cc3cc(O[C@H]4CCN(Cc5cc(Cl)c6nc(N7CCOCC7)ncc6c5)C4)ccc3C2=O)C(=O)N1` [(3S)-3-(5-{[(3S)-1-{[8-chloro-2-(morpholin-4-yl)quinazolin-6-yl]methyl}pyrrolidin-3-yl]oxy}-1-oxo-2,3-dihydro-1H-isoindol-2-yl)piperidine-2,6-dione], the “293T-LentiX WEE1-ePL Degradation 4 hr (Ymin)” value on WEE1 (setting [2]) is 38.34. Besides, the DC50 on WEE1 was 2.88 nM. For the same compound, in the assay with MKN45 cells, the EC50 is 10.8 nM and the “MKN45 Cell Prolif. 120 hr (Ymin-Obs)” value was determined as 12.54.
Regarding `CC1(c2ccc3cc(CN4CC[C@H](Oc5ccc6c(c5)CN(C5CCC(=O)NC5=O)C6=O)C4)ccc3n2)CCOCC1` (stereo partly drawn) [3-(5-{[(3S)-1-{[2-(4-methyloxan-4-yl)quinolin-6-yl]methyl}pyrrolidin-3-yl]oxy}-1-oxo-2,3-dihydro-1H-isoindol-2-yl)piperidine-2,6-dione], the “293T-LentiX WEE1-ePL Degradation 4 hr (Ymin)” value at WEE1 (setting [1]) was 32. Also, the DC50 on WEE1 stood at 1.99 nM. The EC50 with MKN45 cells (growth inhibition) worked out at 4.03 nM. The “MKN45 Cell Prolif. 120 hr (Ymin-Obs)” value in the assay with MKN45 cells was found to be 10.29.
For the compound `O=C1CCC(N2Cc3cc(O[C@H]4CCN(Cc5cncc(C(F)(F)F)c5)C4)ccc3C2=O)C(=O)N1` (stereo partly drawn) [3-(1-oxo-5-{[(3S)-1-{[5-(trifluoromethyl)pyridin-3-yl]methyl}pyrrolidin-3-yl]oxy}-2,3-dihydro-1H-isoindol-2-yl)piperidine-2,6-dione], the “293T-LentiX WEE1-ePL Degradation 4 hr (Ymin)” value on WEE1 (setting [1]) came to 33.76. Besides, the DC50 at WEE1 amounted to 36.9 nM. The EC50 with MKN45 cells (growth inhibition) was determined as 842 nM. Further, in the assay on MKN45 cells, the “MKN45 Cell Prolif. 120 hr (Ymin-Obs)” value worked out at 54.82.
As for `CC1(C)C[C@@H](c2ccc3cc(CN4CC[C@H](Oc5ccc6c(c5)CN([C@H]5CCC(=O)NC5=O)C6=O)C4)ccc3n2)CCO1` [(3S)-3-(5-{[(3S)-1-({2-[(4S)-2,2-dimethyloxan-4-yl]quinolin-6-yl}methyl)pyrrolidin-3-yl]oxy}-1-oxo-2,3-dihydro-1H-isoindol-2-yl)piperidine-2,6-dione], the “293T-LentiX WEE1-ePL Degradation 4 hr (Ymin)” value at WEE1 (setting [2]) worked out at 24.69. Moreover, at WEE1, the DC50 is 1.77 nM. In the assay on MKN45 cells, the EC50 amounted to 1.34 nM and the “MKN45 Cell Prolif. 120 hr (Ymin-Obs)” value was 9.025.
For the compound `Cc1ccc2cc(CN3CC[C@H](Oc4ccc5c(c4)CN(C4CCC(=O)NC4=O)C5=O)C3)ncc2c1` (stereo partly drawn) [3-(5-{[(3S)-1-[(7-methylisoquinolin-3-yl)methyl]pyrrolidin-3-yl]oxy}-1-oxo-2,3-dihydro-1H-isoindol-2-yl)piperidine-2,6-dione], the “293T-LentiX WEE1-ePL Degradation 4 hr (Ymin)” value at WEE1 (setting [1]) amounted to 32.315. The DC50 on WEE1 is 12.2 nM. Further, the EC50 in the assay on MKN45 cells (growth inhibition) is 70.7 nM. The “MKN45 Cell Prolif. 120 hr (Ymin-Obs)” value in the assay with MKN45 cells came to 15.68.
The corresponding values for `Cc1cc(CN2CC[C@H](Oc3ccc4c(c3)CN(C3CCC(=O)NC3=O)C4=O)C2)cnc1C` (stereo partly drawn) [3-(5-{[(3S)-1-[(5,6-dimethylpyridin-3-yl)methyl]pyrrolidin-3-yl]oxy}-1-oxo-2,3-dihydro-1H-isoindol-2-yl)piperidine-2,6-dione] are 35.675, 25.9 nM, 955 nM and 43.03.
For `CN1CCN(c2ncc3cc(CN4CC[C@H](Oc5ccc6c(c5)CN([C@H]5CCC(=O)NC5=O)C6=O)C4)ccc3n2)CC1` [(3S)-3-(5-{[(3S)-1-{[2-(4-methylpiperazin-1-yl)quinazolin-6-yl]methyl}pyrrolidin-3-yl]oxy}-1-oxo-2,3-dihydro-1H-isoindol-2-yl)piperidine-2,6-dione], at WEE1 (setting [2]), the “293T-LentiX WEE1-ePL Degradation 4 hr (Ymin)” value was 37.97. The DC50 on WEE1 was determined as 11.1 nM. Moreover, in the assay with MKN45 cells, the concentration giving a half-maximal response (EC50) stood at 15.2 nM and the “MKN45 Cell Prolif. 120 hr (Ymin-Obs)” value turned out to be 12.23.
As to `C[C@H]1c2cc(O[C@H]3CCN(Cc4ccc5nc(C6CCOCC6)ccc5c4)C3)ccc2C(=O)N1[C@H]1CCC(=O)NC1=O` [(3S)-3-[(3S)-3-methyl-5-{[(3S)-1-{[2-(oxan-4-yl)quinolin-6-yl]methyl}pyrrolidin-3-yl]oxy}-1-oxo-2,3-dihydro-1H-isoindol-2-yl]piperidine-2,6-dione], the “293T-LentiX WEE1-ePL Degradation 4 hr (Ymin)” value on WEE1 (setting [2]) was 49.25. The DC50 on WEE1 was determined as 212 nM. Besides, in the assay on MKN45 cells, the concentration for a half-maximal effect (EC50) was determined as 374 nM and the “MKN45 Cell Prolif. 120 hr (Ymin-Obs)” value was found to be 86.82.
For `O=C1CCC(N2Cc3cc(O[C@H]4CCN(Cc5ccnc6ccccc56)C4)ccc3C2=O)C(=O)N1` (stereo partly drawn) [3-(1-oxo-5-{[(3S)-1-[(quinolin-4-yl)methyl]pyrrolidin-3-yl]oxy}-2,3-dihydro-1H-isoindol-2-yl)piperidine-2,6-dione], the “293T-LentiX WEE1-ePL Degradation 4 hr (Ymin)” value on WEE1 (setting [1]) was 33.025. In addition, the DC50 at WEE1 came out at 23.4 nM. Besides, the EC50 in the assay with MKN45 cells (growth inhibition) was determined as 56.8 nM. Also, the “MKN45 Cell Prolif. 120 hr (Ymin-Obs)” value in the assay on MKN45 cells stood at 13.21.
The corresponding values for `O=C1CCC(N2Cc3cc(O[C@H]4CCN(Cc5cncc(-c6ccccc6)c5)C4)ccc3C2=O)C(=O)N1` (stereo partly drawn) [3-(1-oxo-5-{[(3S)-1-[(5-phenylpyridin-3-yl)methyl]pyrrolidin-3-yl]oxy}-2,3-dihydro-1H-isoindol-2-yl)piperidine-2,6-dione] are 33, 2.17 nM, 8.4 nM and 7.52.
